Assay results published in patent US12649723B2, “Carbonohydrazonoyl dicyanide compounds comprising 2 or more aryl or heteroaryl connected via linker and use thereof” (KOREA INSTITUTE OF SCIENCE AND TECHNOLOGY, priority 2020, dated 2026).

Columns and labels:
tau protein = molecular target: T1, tau protein (Homo sapiens, UniProt P10636); experiment: Tau-BiFC cell model: inhibition of tau protein aggregation; format: cell-based; conditions: for remaining activity at 10 µM: 48 h, compound 10 μM, BiFC fluorescence, Forskolin-only group = 100% tau protein-aggregated state, read-out: Response (% @10 μM); for IC50: Tau BiFC in cells, with Forskolin 30 μM, 48 hours
T1 construct: fused on or other part: Split fluorescent-protein halves for BiFC are fused to tau; In the published tau-BiFC line these are Venus VN173 and VC155
T1 sequence (P10636 2-441 isoform P10636-8 limits assumed): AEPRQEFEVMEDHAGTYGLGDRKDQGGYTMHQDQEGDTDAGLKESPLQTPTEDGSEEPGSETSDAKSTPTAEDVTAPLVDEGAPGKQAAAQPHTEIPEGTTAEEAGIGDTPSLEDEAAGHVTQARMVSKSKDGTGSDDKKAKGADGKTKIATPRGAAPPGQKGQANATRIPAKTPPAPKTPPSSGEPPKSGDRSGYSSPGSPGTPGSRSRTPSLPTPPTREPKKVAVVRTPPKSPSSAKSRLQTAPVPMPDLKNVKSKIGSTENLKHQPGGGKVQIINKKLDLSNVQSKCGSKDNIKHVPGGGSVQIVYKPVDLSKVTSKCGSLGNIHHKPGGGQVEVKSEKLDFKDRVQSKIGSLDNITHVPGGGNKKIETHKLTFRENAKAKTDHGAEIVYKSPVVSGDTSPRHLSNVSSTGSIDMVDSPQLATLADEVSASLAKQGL
Method: (§1) In order to select novel tau protein aggregation-inhibiting substances, tau-BiFC cell model, in which formation of tau oligomers in living cells is easily observed, was used. Tau-BiFC cells were aliquoted into a 384-well plate. On the next day, the cells were treated with each of the compounds prepared according to Examples 1 to 175 at concentrations of 1 μM, 3 μM, and 10 μM, together with Forskolin (at a treatment concentration of 30 μM), which is a compound inducing tau protein aggregation by activating tau […] PKA. After 48 hours, nuclei in the cells were stained using Hoechst (at a treatment concentration of 2 μg/mL), and BiFC fluorescence intensity was automatically measured using Operetta (PerkinElmer) to count stained nuclei in each well out of the entire well plate. The group treated only with Forskolin, which induces tau protein aggregation, was set to a reference point of a 100% tau protein-aggregated state, and the effects of the compounds were confirmed using the equation “BiFC fluorescence intensity due to compound synthesized according to embodiment of present invention/(fluorescence intensity of control group treated only with Forskolin inducing tau protein aggregation−fluorescence intensity of untreated control group)×100”. Furthermore, the degree of cytotoxicity induced by the newly synthesized compound was also measured based on the 100% cell viability of the group treated only with Forskolin as a reference, and the cytotoxicity value of each compound was calculated using the equation “(number of stained nuclei in group treated with compound/number of stained nuclei in group treated with Forskolin)×100”. Based on the treatment results, substances inhibiting intracellular tau protein aggregation were selected from a series of candidate groups showing a tau protein aggregation inhibition rate of 70% or more and cell viability of 100% at a compound treatment concentration of 10 μM or more.
(§2) In order to evaluate dose-dependent tau protein aggregation inhibition effects of the compounds selected according to Experimental Example 1 on tau protein aggregation, tau-BiFC cells were treated with the selected compounds at concentrations of 0.03 μM, […], 0.3 μM, 1 μM, 3 μM, 10 μM, and 30 μM, respectively, together with Forskolin (at a treatment concentration of 30 μM), which is a tau protein aggregation inducing substance. After 48 hours, tau protein aggregation reaction and degrees of cytotoxicity were analyzed by observing images of the cells. IC50 and toxicity of the compounds were analyzed by way of nonlinear regression analysis of prism software (Graph Pad).

Tau-BiFC cells = experiment: Cell viability (cytotoxicity) in tau-BiFC cells, count of stained nuclei; format: cell-based; conditions: compound 10 μM; Forskolin-only group = 100% cell viability
Method: as §1, §2

SMILES: COc1ccc(NC(=O)c2ccc(NN=C(C#N)C#N)cc2)cc1 [Compound 44, (4-(4-methoxyphenylcarbamoyl)phenyl)carbonohydrazonoyl dicyanide]
- remaining activity at 10 µM (tau protein): 0%
- Cell viability (% @10 μM) (Tau-BiFC cells): 70.4%

SMILES: Cc1ccc(NC(=O)c2ccc(NN=C(C#N)C#N)cc2)cn1 [Compound 47, (4-(6-methylpyridin-3-ylcarbamoyl)phenyl)carbonohydrazonoyl dicyanide]
- remaining activity at 10 µM (tau protein): 0%
- IC50 (tau protein): 2580 nM
- Cell viability (% @10 μM) (Tau-BiFC cells): 122.7%

SMILES: Cc1cncc(NC(=O)c2ccc(NN=C(C#N)C#N)cc2)c1 [Compound 48, (4-(5-methylpyridin-3-ylcarbamoyl)phenyl)carbonohydrazonoyl dicyanide]
- remaining activity at 10 µM (tau protein): 0%
- Cell viability (% @10 μM) (Tau-BiFC cells): 122.3%

SMILES: N#CC(C#N)=NNc1ccc(C(=O)Nc2cccnc2)cc1 [Compound 49, (4-(pyridin-3-ylcarbamoyl)phenyl)carbonohydrazonoyl dicyanide]
- remaining activity at 10 µM (tau protein): 75.9%
- Cell viability (% @10 μM) (Tau-BiFC cells): 117.2%

SMILES: N#CC(C#N)=NNc1ccc(C(=O)Nc2cncnc2)cc1 [Compound 50, (4-(pyrimidin-5-ylcarbamoyl)phenyl)carbonohydrazonoyl dicyanide]
- remaining activity at 10 µM (tau protein): 86.6%
- Cell viability (% @10 μM) (Tau-BiFC cells): 116.4%

SMILES: COc1cc(C(=O)Nc2cnc(C)cn2)ccc1NN=C(C#N)C#N [Compound 51, (2-methoxy-4-(5-methylpyrazin-2-ylcarbamoyl)phenyl)carbonohydrazonoyl dicyanide]
- remaining activity at 10 µM (tau protein): 45.4%
- Cell viability (% @10 μM) (Tau-BiFC cells): 107.1%

SMILES: Cc1cnc(NC(=O)c2ccc(NN=C(C#N)C#N)cc2C)cn1 [Compound 52, (3-methyl-4-(5-methylpyrazin-2-ylcarbamoyl)phenyl)carbonohydrazonoyl dicyanide]
- remaining activity at 10 µM (tau protein): 24%
- Cell viability (% @10 μM) (Tau-BiFC cells): 120.2%

SMILES: Cc1ccc(NC(=O)c2ccc(NN=C(C#N)C#N)cc2C)cn1 [Compound 53, (3-methyl-4-(6-methylpyridin-3-ylcarbamoyl)phenyl)carbonohydrazonoyl dicyanide]
- remaining activity at 10 µM (tau protein): 22.9%
- Cell viability (% @10 μM) (Tau-BiFC cells): 116.1%

SMILES: Cc1cncc(NC(=O)c2ccc(NN=C(C#N)C#N)cc2C)n1 [Compound 54, (3-methyl-4-(6-methylpyrazin-2-ylcarbamoyl)phenyl)carbonohydrazonoyl dicyanide]
- remaining activity at 10 µM (tau protein): 8.3%
- Cell viability (% @10 μM) (Tau-BiFC cells): 116%

SMILES: Cc1ccc(NC(=O)c2ccc(NN=C(C#N)C#N)c(C)c2)cn1 [Compound 55, (2-methyl-4-(6-methylpyridin-3-ylcarbamoyl)phenyl)carbonohydrazonoyl dicyanide]
- remaining activity at 10 µM (tau protein): 65.6%
- Cell viability (% @10 μM) (Tau-BiFC cells): 116.1%

SMILES: Cc1cnc(NC(=O)c2ccc(NN=C(C#N)C#N)c(F)c2)cn1 [Compound 56, (2-fluoro-4-(5-methylpyrazin-2-ylcarbamoyl)phenyl)carbonohydrazonoyl dicyanide]
- remaining activity at 10 µM (tau protein): 0%
- IC50 (tau protein): 1850 nM
- Cell viability (% @10 μM) (Tau-BiFC cells): 129.9%

SMILES: COc1cc(C(=O)Nc2ccc(C)nc2)ccc1NN=C(C#N)C#N [Compound 57, (2-methoxy-4-(6-methylpyridin-3-ylcarbamoyl)phenyl)carbonohydrazonoyl dicyanide]
- remaining activity at 10 µM (tau protein): 51.7%
- Cell viability (% @10 μM) (Tau-BiFC cells): 108.6%

SMILES: N#CC(C#N)=NNc1ccc(NS(=O)(=O)c2ccccc2)nc1 [Compound 58, (6-(phenylsulfonamido)pyridin-3-yl)carbonohydrazonoyl dicyanide]
- remaining activity at 10 µM (tau protein): 51.4%
- Cell viability (% @10 μM) (Tau-BiFC cells): 113.5%

SMILES: COc1ccc(S(=O)(=O)Nc2ccc(NN=C(C#N)C#N)cn2)cc1 [Compound 59, (6-(4-methoxyphenylsulfonamido)pyridin-3-yl)carbonohydrazonoyl dicyanide]
- remaining activity at 10 µM (tau protein): 74.3%
- Cell viability (% @10 μM) (Tau-BiFC cells): 128.2%

SMILES: N#CC(C#N)=NNc1ccc(NS(=O)(=O)c2cccnc2)nc1 [Compound 60, (6-(pyridin-3-sulfonamido)pyridin-3-yl)carbonohydrazonoyl dicyanide]
- remaining activity at 10 µM (tau protein): 90.2%
- Cell viability (% @10 μM) (Tau-BiFC cells): 116.9%

SMILES: Cn1cc(S(=O)(=O)Nc2ccc(NN=C(C#N)C#N)cn2)cn1 [Compound 61, (6-(1-methyl-1H-pyrazole-4-sulfonamido)pyridin-3-yl)carbonohydrazonoyl dicyanide]
- remaining activity at 10 µM (tau protein): 109%
- Cell viability (% @10 μM) (Tau-BiFC cells): 112.7%

SMILES: N#CC(C#N)=NNc1ccc(NS(=O)(=O)c2cccs2)nc1 [Compound 62, (6-(thiophene-2-sulfonamido)pyridin-3-yl)carbonohydrazonoyl dicyanide]
- remaining activity at 10 µM (tau protein): 87.3%
- Cell viability (% @10 μM) (Tau-BiFC cells): 116.5%

SMILES: Cc1ccc(S(=O)(=O)Nc2ccc(NN=C(C#N)C#N)cn2)cc1 [Compound 63, (6-(4-methylphenylsulfonamido)pyridin-3-yl)carbonohydrazonoyl dicyanide]
- remaining activity at 10 µM (tau protein): 11.5%
- Cell viability (% @10 μM) (Tau-BiFC cells): 136.7%

SMILES: N#CC(C#N)=NNc1ccc(NS(=O)(=O)c2ccc(F)cc2)nc1 [Compound 64, (6-(4-fluorophenylsulfonamido)pyridin-3-yl)carbonohydrazonoyl dicyanide]
- remaining activity at 10 µM (tau protein): 56%
- Cell viability (% @10 μM) (Tau-BiFC cells): 114.2%

SMILES: Cc1ccc(NS(=O)(=O)c2ccc(NN=C(C#N)C#N)cc2)cn1 [Compound 65, (4-(N-(6-methylpyridin-3-yl)sulfamoyl)phenyl)carbonohydrazonoyl dicyanide]
- remaining activity at 10 µM (tau protein): 72.6%
- Cell viability (% @10 μM) (Tau-BiFC cells): 111.4%

SMILES: COc1ccc(NS(=O)(=O)c2ccc(NN=C(C#N)C#N)cc2)cc1 [Compound 66, (4-(N-(4-methoxyphenyl)sulfamoyl)phenyl)carbonohydrazonoyl dicyanide]
- remaining activity at 10 µM (tau protein): 61.2%
- Cell viability (% @10 μM) (Tau-BiFC cells): 123.9%

SMILES: Cc1cnc(NS(=O)(=O)c2ccc(NN=C(C#N)C#N)cc2)cn1 [Compound 67, (4-(N-(5-methylpyrazin-2-yl)sulfamoyl)phenyl)carbonohydrazonoyl dicyanide]
- remaining activity at 10 µM (tau protein): 68.2%
- Cell viability (% @10 μM) (Tau-BiFC cells): 108.4%

SMILES: N#CC(C#N)=NNc1ccc(Oc2ccccc2)cn1 [Compound 70, (5-phenoxypyridin-2-yl)carbonohydrazonoyl dicyanide]
- remaining activity at 10 µM (tau protein): 0%
- IC50 (tau protein): 310 nM
- Cell viability (% @10 μM) (Tau-BiFC cells): 94.5%

SMILES: N#CC(C#N)=NNc1ccc(Oc2ccccc2)c(F)c1 [Compound 71, (3-fluoro-4-phenoxyphenyl)carbonohydrazonoyl dicyanide]
- remaining activity at 10 µM (tau protein): 0%
- Cell viability (% @10 μM) (Tau-BiFC cells): 46%

SMILES: N#CC(C#N)=NNc1ccc(Oc2cccnc2)c(F)c1 [Compound 72, (3-fluoro-4-(pyridin-3-yloxy)phenyl)carbonohydrazonoyl dicyanide]
- remaining activity at 10 µM (tau protein): 0%
- IC50 (tau protein): 1990 nM
- Cell viability (% @10 μM) (Tau-BiFC cells): 129.5%

SMILES: N#CC(C#N)=NNc1ccc(Oc2ccccc2)c(C(F)(F)F)c1 [Compound 73, (4-phenoxy-3-(trifluoromethyl)phenyl)carbonohydrazonoyl dicyanide]
- remaining activity at 10 µM (tau protein): 0%
- Cell viability (% @10 μM) (Tau-BiFC cells): 49.6%

SMILES: Cc1cc(NN=C(C#N)C#N)ccc1Oc1cccnc1 [Compound 74, (3-methyl-4-(pyridin-3-yloxy)phenyl)carbonohydrazonoyl dicyanide]
- remaining activity at 10 µM (tau protein): 0%
- IC50 (tau protein): 440 nM
- Cell viability (% @10 μM) (Tau-BiFC cells): 92.7%

SMILES: CN(N=C(C#N)C#N)c1ccc(Oc2ccccc2)cn1 [Compound 75, methyl(5-phenoxypyridin-2-yl)carbonohydrazonoyl dicyanide]
- remaining activity at 10 µM (tau protein): 102%
- Cell viability (% @10 μM) (Tau-BiFC cells): 131.4%

SMILES: CN(N=C(C#N)C#N)c1ccc(Oc2cccc(F)c2)nc1 [Compound 76, (6-(3-fluorophenoxy)pyridin-3-yl)(methyl)carbonohydrazonoyl dicyanide]
- remaining activity at 10 µM (tau protein): 79.9%
- Cell viability (% @10 μM) (Tau-BiFC cells): 121.7%

SMILES: CN(N=C(C#N)C#N)c1ccc(Oc2ccccc2)c(F)c1 [Compound 77, (3-fluoro-4-phenoxyphenyl)(methyl)carbonohydrazonoyl dicyanide]
- remaining activity at 10 µM (tau protein): 84.8%
- Cell viability (% @10 μM) (Tau-BiFC cells): 91.6%

SMILES: CN(N=C(C#N)C#N)c1ccc(Oc2ccccc2)c(C(F)(F)F)c1 [Compound 78, methyl(4-phenoxy-3-(trifluoromethyl)phenyl)carbonohydrazonoyl dicyanide]
- remaining activity at 10 µM (tau protein): 69.6%
- Cell viability (% @10 μM) (Tau-BiFC cells): 74%

SMILES: Cc1cc(NN=C(C#N)C#N)ccc1Oc1ccncc1 [Compound 79, (3-methyl-4-(pyridin-4-yloxy)phenyl)carbonohydrazonoyl dicyanide]
- remaining activity at 10 µM (tau protein): 65.9%
- Cell viability (% @10 μM) (Tau-BiFC cells): 115.7%
